Measured values reported in US9771369B2, “Compounds and methods for kinase modulation, and indications therefor” (Plexxikon Inc., priority 2014, dated 2017).

Assays:
[1] = test system: BaF3-FL KIT D816V or BaF3-FL KIT V560G/D816V cell line; experiment: Cell-based assays of c-Kit mutant kinase activity (cell proliferation, ATPlite); settings: at least one of the c-kit cell assays of Example 7
Procedure, shortened: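 BaF3 cells dependent on transfected full-length human KIT D816V or V560G/D816V (pCI-Neo, CMV promoter) were seeded at 1×10^4 cells/well and exposed to 8-point 1:3 dilutions from 10 μM top (0.2% DMSO) for three days at 37° C. ATPlite luminescence gave cell number; IC50 from concentration-response.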

[2] = biological target: c-kit mutant D816V (Homo sapiens (Human), UniProt P10721, D816V/DEL694-753); experiment: c-Kit mutant D816V biochemical assay (AlphaScreen kinase activity)
Procedure, shortened: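 AlphaScreen with streptavidin donor and PY30 acceptor beads read phosphotyrosine on biotin-(E4Y)10 substrate (30 nM). Enzyme: E. coli-expressed N-His c-Kit D816V, residues 551-934 lacking kinase insert 694-753. Reaction 30 min at room temperature, 10 μM ATP, 5% DMSO; IC50 fitted over 8 three-fold dilutions.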

Sequence of c-kit mutant D816V (P10721 other isoform, or with tags, fused parts or gaps D816V/del 694-753): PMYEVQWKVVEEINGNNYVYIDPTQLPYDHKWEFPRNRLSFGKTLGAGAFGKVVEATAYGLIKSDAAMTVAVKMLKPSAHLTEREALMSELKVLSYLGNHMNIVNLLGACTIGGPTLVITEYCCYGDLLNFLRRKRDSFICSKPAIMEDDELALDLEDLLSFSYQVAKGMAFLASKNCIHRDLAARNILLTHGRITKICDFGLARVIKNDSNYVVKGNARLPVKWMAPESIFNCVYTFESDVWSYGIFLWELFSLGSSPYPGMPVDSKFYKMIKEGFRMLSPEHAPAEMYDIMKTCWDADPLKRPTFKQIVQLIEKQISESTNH

SMILES	IC50 [1] [µM]	IC50 [2] [µM]
COc1ncc(-c2cc3c(N4CCC(c5nc(C)c(-c6ccccc6)[nH]5)CC4)ncnc3[nH]2)cn1 [P-3045, 6-(2-methoxypyrimidin-5-yl)-4-[4-(4-methyl-5-phenyl-1H-imidazol-2-yl)-1-piperidyl]-7H-pyrrolo[2,3-d]pyrimidine]	< 10	0.0001 to 1
Cc1nc(C2CCN(c3ncnc4[nH]c(-c5cccc(OC(F)(F)F)c5)cc34)CC2)[nH]c1-c1ccccc1 [P-3080, 4-[4-(4-methyl-5-phenyl-1H-imidazol-2-yl)-1-piperidyl]-6-[3-(trifluoromethoxy)phenyl]-7H-pyrrolo[2,3-d]pyrimidine]	< 10	0.0001 to 1
Cc1nc(C2CCN(c3ncnc4[nH]c(-c5ccc(C#N)cc5)cc34)CC2)[nH]c1-c1ccc(OC(F)(F)F)cc1 [P-3086, 4-[4-[4-[4-methyl-5-[4-(trifluoromethoxy)phenyl]-1H-imidazol-2-yl]-1-piperidyl]-7H-pyrrolo[2,3-d]pyrimidin-6-yl]benzonitrile]	< 10	0.0001 to 1
COc1cc(-c2cc3c(N4CCC(c5nc(C)c(-c6ccc(OC)c(OC)c6)[nH]5)CC4)ncnc3[nH]2)ccn1 [P-3042, 4-[4-[5-(3,4-dimethoxyphenyl)-4-methyl-1H-imidazol-2-yl]-1-piperidyl]-6-(2-methoxy-4-pyridyl)-7H-pyrrolo[2,3-d]pyrimidine]	< 10	0.0001 to 1
COc1ccc(-c2[nH]c(C3CCN(c4ncnc5[nH]c(-c6ccc(F)cc6)cc45)CC3)nc2C)cc1OC [P-3036, 4-[4-[5-(3,4-dimethoxyphenyl)-4-methyl-1H-imidazol-2-yl]-1-piperidyl]-6-(4-fluorophenyl)-7H-pyrrolo[2,3-d]pyrimidine]	< 10	0.0001 to 1
Cc1nc(C2CCN(c3ncnc4[nH]c(-c5ccc(C#N)cc5)cc34)CC2)[nH]c1-c1ccc2c(c1)OCO2 [P-3069, 4-[4-[4-[5-(1,3-benzodioxol-5-yl)-4-methyl-1H-imidazol-2-yl]-1-piperidyl]-7H-pyrrolo[2,3-d]pyrimidin-6-yl]benzonitrile]	< 10	0.0001 to 1
COc1cc(-c2cc3c(N4CCC(c5nc(C)c(-c6ccc(C)cc6)[nH]5)CC4)ncnc3[nH]2)ccn1 [P-3088, 6-(2-methoxy-4-pyridyl)-4-[4-[4-methyl-5-(p-tolyl)-1H-imidazol-2-yl]-1-piperidyl]-7H-pyrrolo[2,3-d]pyrimidine]	< 10	0.0001 to 1
CCOc1ccc(-c2[nH]c(C3CCN(c4ncnc5[nH]c(-c6ccnc(OC)c6)cc45)CC3)nc2C)cc1C [P-3067, 4-[4-[5-(4-ethoxy-3-methyl-phenyl)-4-methyl-1H-imidazol-2-yl]-1-piperidyl]-6-(2-methoxy-4-pyridyl)-7H-pyrrolo[2,3-d]pyrimidine]	< 10	0.0001 to 1
COc1cc(-c2cc3c(N4CCC(C)(c5nc(C)c(-c6ccccc6)[nH]5)CC4)ncnc3[nH]2)ccn1 [P-3033, 6-(2-methoxy-4-pyridyl)-4-[4-methyl-4-(4-methyl-5-phenyl-1H-imidazol-2-yl)-1-piperidyl]-7H-pyrrolo[2,3-d]pyrimidine]	< 10	0.0001 to 1
Cc1nc(C2CCN(c3ncnc4[nH]c(-c5ccc(F)cc5)cc34)CC2)[nH]c1-c1ccc(Cl)cc1 [P-3035, 4-[4-[5-(4-chlorophenyl)-4-methyl-1H-imidazol-2-yl]-1-piperidyl]-6-(4-fluorophenyl)-7H-pyrrolo[2,3-d]pyrimidine]	< 10	0.0001 to 1
COc1ccc(-c2[nH]c(C3CCN(c4ncnc5[nH]c(-c6ccc(F)cc6)cc45)CC3)nc2C)cc1C [P-3029, 6-(4-fluorophenyl)-4-[4-[5-(4-methoxy-3-methyl-phenyl)-4-methyl-1H-imidazol-2-yl]-1-piperidyl]-7H-pyrrolo[2,3-d]pyrimidine]	< 10	0.0001 to 1
